Results reported in US20050222200A1, “AMIDE DERIVATIVES AS ION CHANNEL LIGANDS AND PHARMACEUTICAL COMPOSITIONS AND METHODS OF USING THE SAME” (Renovis, Inc., priority 2003, published 2005).

Molecular target: VR1 (Rattus norvegicus, UniProt O35433)
Assay: Calcium imaging assay: inhibition of capsaicin induced calcium influx in DRG neurons (Fura2, microscope)
Format: cell-based
Set-up: endogenous in cells; host or cells: DRG neurons
Settings: capsaicin stimulation; class symbols per legend
Description: VR1 protein is a heat-gated cation channel that […] resulting in neuronal membrane depolarization and elevated intracellular calcium levels. Therefore the functional activity of compounds at the VR1 receptor may be determined by measuring changes in intracellular calcium levels in neurons such as the dorsal root ganglion.
DRG neurons were grown on PDL coated 96-well black-walled plates, in the presence of DMEM medium containing 5% Penstrep, 5% Glutamax, 200 μg/ml hygromycin, 5 μg/ml blasticide and 10% heat inactivated FBS. Prior to assay, cells were loaded with 5 μg/ml Fura2 in normal saline solution at 37° C for 40 minutes. Cells were then washed with normal saline to remove dye before commencement of the experiment.
The plated neurons were transferred into a chamber on the stage of a Nikon eclipse TE300 microscope after which neurons were allowed to attain a stable fluorescence for about 10 minutes before beginning the experiment. The assay consists of two stages, a pretreatment phase followed by a treatment phase. First, a solution of the test compound was added from a multivalve perfusion system to the cells for 1 minute (pretreatment). Immediately following, capsaicin (250 nM) was added in the presence of the test compound (treatment) for a specific period between 20 and 60 seconds.
Fura2 was excited at […] to indicate relative calcium ion concentration. Changes in wavelength measurements were made throughout the course of the experiment. The fluorescence ratio was calculated by dividing fluorescence measured at 340 nm by that at 380 nM. Data was collected using Intelligent Imaging’s Slidebook software. All compounds that inhibited capsaicin induced calcium influx greater than 75% were considered positives.
Fluorescence reflecting calcium ion influx is reduced.

Chain of VR1 (O35433 whole entry): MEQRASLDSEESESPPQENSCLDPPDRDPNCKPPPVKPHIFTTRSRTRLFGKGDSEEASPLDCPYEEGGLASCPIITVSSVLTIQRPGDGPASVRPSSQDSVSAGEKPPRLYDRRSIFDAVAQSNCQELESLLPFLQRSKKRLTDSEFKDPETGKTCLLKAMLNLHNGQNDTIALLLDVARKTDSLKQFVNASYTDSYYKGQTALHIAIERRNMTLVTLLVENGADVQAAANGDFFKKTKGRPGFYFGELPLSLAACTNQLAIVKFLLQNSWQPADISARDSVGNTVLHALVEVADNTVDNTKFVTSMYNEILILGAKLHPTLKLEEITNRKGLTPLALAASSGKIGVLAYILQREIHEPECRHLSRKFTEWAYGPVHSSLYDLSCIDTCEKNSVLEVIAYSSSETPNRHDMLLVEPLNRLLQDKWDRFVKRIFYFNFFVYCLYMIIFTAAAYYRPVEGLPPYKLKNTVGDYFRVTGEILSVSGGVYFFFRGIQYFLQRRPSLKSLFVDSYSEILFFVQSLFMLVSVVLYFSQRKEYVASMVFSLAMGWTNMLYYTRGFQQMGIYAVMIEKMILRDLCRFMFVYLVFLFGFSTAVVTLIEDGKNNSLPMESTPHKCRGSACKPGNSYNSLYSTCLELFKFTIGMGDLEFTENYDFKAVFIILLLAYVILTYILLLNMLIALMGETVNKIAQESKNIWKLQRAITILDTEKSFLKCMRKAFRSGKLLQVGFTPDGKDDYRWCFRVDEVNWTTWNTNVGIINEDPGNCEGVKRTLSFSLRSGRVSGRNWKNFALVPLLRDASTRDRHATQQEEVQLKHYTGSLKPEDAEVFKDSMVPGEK

SMILES	inhibition of calcium ion influx induced by capsaicin stimulation
CCC/C=C/c1ccc(C(=O)NC2CCN(C)CC2)cc1 [Compound 237]	+ (compound exhibited 0-25% inhibition of calcium ion influx induced by capsaicin stimulation)
CCC/C=C/c1ccc(C(=O)NCc2ccc(OC)c(OC)c2)cc1 [Compound 238]	+ (compound exhibited 0-25% inhibition of calcium ion influx induced by capsaicin stimulation)
CCC/C=C/c1ccc(C(=O)NCc2cccc(F)c2)cc1 [Compound 239]	++ (compound exhibited 25-50% inhibition of calcium ion influx induced by capsaicin stimulation)
CCC/C=C/c1ccc(C(=O)Nc2ccc(Cl)c(C(F)(F)F)c2)cc1 [Compound 242]	++ (compound exhibited 25-50% inhibition of calcium ion influx induced by capsaicin stimulation)
CCC/C=C/c1ccc(C(=O)Nc2cccc(C#N)c2)cc1 [Compound 244]	++ (compound exhibited 25-50% inhibition of calcium ion influx induced by capsaicin stimulation)
CCC/C=C/c1ccc(C(=O)Nc2ccccc2CCO)cc1 [Compound 245]	+ (compound exhibited 0-25% inhibition of calcium ion influx induced by capsaicin stimulation)
CCC/C=C/c1ccc(C(=O)Nc2ccc(C(C)(C)C)cc2)cc1 [Compound 246]	+ (compound exhibited 0-25% inhibition of calcium ion influx induced by capsaicin stimulation)
CCC/C=C/c1ccc(C(=O)Nc2ccc(C(C)C)cc2)cc1 [Compound 247]	+ (compound exhibited 0-25% inhibition of calcium ion influx induced by capsaicin stimulation)
CCC/C=C/c1ccc(C(=O)Nc2ccc(CCCC)cc2)cc1 [Compound 248]	+++ (compound exhibited 50-75% inhibition of calcium ion influx induced by capsaicin stimulation)
CCC/C=C/c1ccc(C(=O)Nc2cc(OC)cc(C(F)(F)F)c2)cc1 [Compound 249]	+ (compound exhibited 0-25% inhibition of calcium ion influx induced by capsaicin stimulation)
CCC/C=C/c1ccc(C(=O)Nc2ccc3[nH]ccc3c2)cc1 [Compound 252]	+ (compound exhibited 0-25% inhibition of calcium ion influx induced by capsaicin stimulation)
CCC/C=C/c1ccc(C(=O)Nc2cc(CC)ccn2)cc1 [Compound 256]	+ (compound exhibited 0-25% inhibition of calcium ion influx induced by capsaicin stimulation)
CCC/C=C/c1ccc(C(=O)Nc2ccc(Cl)nc2)cc1 [Compound 259]	+ (compound exhibited 0-25% inhibition of calcium ion influx induced by capsaicin stimulation)
CCC/C=C/c1ccc(C(=O)Nc2ccc(OC)nc2)cc1 [Compound 260]	+ (compound exhibited 0-25% inhibition of calcium ion influx induced by capsaicin stimulation)
CCC/C=C/c1ccc(C(=O)Nc2ccnc(Cl)c2)cc1 [Compound 261]	+ (compound exhibited 0-25% inhibition of calcium ion influx induced by capsaicin stimulation)
CCC/C=C/c1ccc(C(=O)NCc2cccnc2)cc1 [Compound 267]	+ (compound exhibited 0-25% inhibition of calcium ion influx induced by capsaicin stimulation)
COc1ccccc1CNC(=O)c1ccc(/C(C)=C/C(C)(C)C)cc1 [Compound 275]	+ (compound exhibited 0-25% inhibition of calcium ion influx induced by capsaicin stimulation)
C/C(=C\C(C)(C)C)c1ccc(C(=O)NCc2ccncc2)cc1 [Compound 281]	+ (compound exhibited 0-25% inhibition of calcium ion influx induced by capsaicin stimulation)
C/C(=C\C(C)(C)C)c1ccc(C(=O)NC(c2ccccc2)c2ccccc2)cc1 [Compound 283]	+ (compound exhibited 0-25% inhibition of calcium ion influx induced by capsaicin stimulation)
C/C(=C\C(C)(C)C)c1ccc(C(=O)NCCc2ccccc2Cl)cc1 [Compound 286]	+ (compound exhibited 0-25% inhibition of calcium ion influx induced by capsaicin stimulation)
C/C(=C\C(C)(C)C)c1ccc(C(=O)NC2CCC(C(C)(C)C)CC2)cc1 (stereo not drawn) [Compound 287]	+ (compound exhibited 0-25% inhibition of calcium ion influx induced by capsaicin stimulation)

SMILES	inhibition of calcium ion influx induced by capsaicin stimulation
C/C(=C\C(C)(C)C)c1ccc(C(=O)NCCc2ccc(S(N)(=O)=O)cc2)cc1 [Compound 304]	+ (compound exhibited 0-25% inhibition of calcium ion influx induced by capsaicin stimulation)
COc1cc(CNC(=O)c2ccc(/C(C)=C/C(C)(C)C)cc2)cc(OC)c1OC [Compound 305]	+ (compound exhibited 0-25% inhibition of calcium ion influx induced by capsaicin stimulation)
C/C(=C\C(C)(C)C)c1ccc(C(=O)NCc2ccccn2)cc1 [Compound 308]	+ (compound exhibited 0-25% inhibition of calcium ion influx induced by capsaicin stimulation)
C/C(=C\C(C)(C)C)c1ccc(C(=O)Nc2ccccc2O)cc1 [Compound 313]	+ (compound exhibited 0-25% inhibition of calcium ion influx induced by capsaicin stimulation)
CCNC(=O)c1ccc(/C(C)=C/C(C)(C)C)cc1 [Compound 315]	+ (compound exhibited 0-25% inhibition of calcium ion influx induced by capsaicin stimulation)
C/C(=C\C(C)(C)C)c1ccc(C(=O)NCc2cccs2)cc1 [Compound 316]	++ (compound exhibited 25-50% inhibition of calcium ion influx induced by capsaicin stimulation)
C/C(=C\C(C)(C)C)c1ccc(C(=O)Nc2cc(C)ccn2)cc1 [Compound 324]	+ (compound exhibited 0-25% inhibition of calcium ion influx induced by capsaicin stimulation)
COc1ccc(NC(=O)c2ccc(/C(C)=C/C(C)(C)C)cc2)cc1Cl [Compound 330]	+ (compound exhibited 0-25% inhibition of calcium ion influx induced by capsaicin stimulation)
C/C(=C\C(C)(C)C)c1ccc(C(=O)Nc2ccc(C(F)(F)F)cc2)cc1 [Compound 331]	+++ (compound exhibited 50-75% inhibition of calcium ion influx induced by capsaicin stimulation)
C/C(=C\C(C)(C)C)c1ccc(C(=O)Nc2cccc(C#N)c2)cc1 [Compound 332]	+++ (compound exhibited 50-75% inhibition of calcium ion influx induced by capsaicin stimulation)
C/C(=C\C(C)(C)C)c1ccc(C(=O)Nc2ccc(C(C)(C)C)cc2)cc1 [Compound 334]	+++ (compound exhibited 50-75% inhibition of calcium ion influx induced by capsaicin stimulation)
CCCCc1ccc(NC(=O)c2ccc(/C(C)=C/C(C)(C)C)cc2)cc1 [Compound 336]	++ (compound exhibited 25-50% inhibition of calcium ion influx induced by capsaicin stimulation)
COc1cc(NC(=O)c2ccc(/C(C)=C/C(C)(C)C)cc2)cc(C(F)(F)F)c1 [Compound 337]	+ (compound exhibited 0-25% inhibition of calcium ion influx induced by capsaicin stimulation)
C/C(=C\C(C)(C)C)c1ccc(C(=O)Nc2ccc(C)cc2C)cc1 [Compound 338]	+ (compound exhibited 0-25% inhibition of calcium ion influx induced by capsaicin stimulation)
C/C(=C\C(C)(C)C)c1ccc(C(=O)Nc2ccncn2)cc1 [Compound 341]	+ (compound exhibited 0-25% inhibition of calcium ion influx induced by capsaicin stimulation)
C/C(=C\C(C)(C)C)c1ccc(C(=O)Nc2ccc(C(F)(F)F)cn2)cc1 [Compound 344]	+ (compound exhibited 0-25% inhibition of calcium ion influx induced by capsaicin stimulation)
C/C(=C\C(C)(C)C)c1ccc(C(=O)Nc2ncc(C(F)(F)F)cc2Cl)cc1 [Compound 345]	+ (compound exhibited 0-25% inhibition of calcium ion influx induced by capsaicin stimulation)
C/C(=C\C(C)(C)C)c1ccc(C(=O)NCCc2cnc[nH]2)cc1 [Compound 356]	+ (compound exhibited 0-25% inhibition of calcium ion influx induced by capsaicin stimulation)
C/C(=C\C(C)(C)C)c1ccc(C(=O)NCc2cccnc2)cc1 [Compound 357]	+ (compound exhibited 0-25% inhibition of calcium ion influx induced by capsaicin stimulation)
C/C(=C/C(C)(C)C)c1ccc(C(=O)Nc2ccc3ccccc3c2)cc1 [Compound 358]	++++ (compound exhibited 75% or greater inhibition of calcium ion influx induced by capsaicin stimulation)
CC(C)(C)C#Cc1ccc(C(=O)Nc2ccc3c(c2)OCO3)cc1 [Compound 361]	++++ (compound exhibited 75% or greater inhibition of calcium ion influx induced by capsaicin stimulation)
